Results: patent publication US10576050B2, “Methods and compositions for treatment of cancer” (ONCONOVA THERAPEUTICS, INC., priority 2012, dated 2020)
“And” between values parts separate entries of the source, which are not always exact repeats. Identical values can stand only once.

Legend:
[1] = Phase 1 oral bioavailability study of Rigosertib soft gelatin capsule in MDS patients, fasted and fed, vs IV; assay type: in vivo, human; settings: for AUC / Cmax / Tmax / half-life / bioavailability: human, plasma, MDS patients
Method: A Phase 1 study was conducted to assess oral bioavailability of a novel oral ON 01910.Na (Rigosertib) soft gelatin capsule formulation of Example 1 in MDS patients under fasted and fed conditions. This was a single-dose, three-treatment, three-period sequential design for studying the effects of food on the bioavailability of an immediate-release soft gelatin capsule formulation. The following dosing groups were tested in 12 patients: IV Dose 800 mg over 24 hours and oral dose 560 mg (2×280 mg capsules) under fasting and fed conditions. Plasma samples were collected pre-dose, over 32 hours (IV dose) or 8 hours (oral dose) after dose initiation. Rigosertib plasma levels were analyzed by a validated LC/MS/MS method. Pharmacokinetic parameters were estimated by non-compartmental analysis (WinNonlin®).

[2] = Phase I/II trials of intravenous Rigosertib in MDS patients: bone marrow blast response and overall survival
Method: According to one embodiment, Rigosertib was given as an intravenous infusion to MDS patients. In one trial, patients received 800 mg Rigosertib for three to five days every other week. According to another embodiment, patients received 650 to 1,700 mg Rigosertib for three to six days every other week. According to yet another embodiment, patients were initially treated with 800 mg to 1,500 mg Rigosertib for two days every week for three weeks followed by one week without treatment. The treatment schedule in these studies was later changed to 1,800 mg Rigosertib for three days every other week.
In this Example, bone marrow (BM) response and overall survival (OS) were analyzed in 60 patients (pts) with MDS, including 51 patients with refractory anemia and excess blasts (RAEB) and 9 patients with refractory cytopenia and multilineage dysplasia (RCMD) enrolled in 4 independent Phase 1/II clinical trials.
The patients were treated with Rigosertib administered as a continuous intravenous infusion (CIV) from 2 to 6 days weekly or every other week with BM response initially assessed per protocol by week 4 or 8 and every 8 weeks thereafter. Overall survival (OS) analyses were performed by the method of Kaplan-Meier.

[3] = Phase II randomized two-arm study of oral Rigosertib (560 mg bid, intermittent or continuous) in transfusion-dependent lower risk MDS patients; settings: for median duration of treatment: FIG. 5
Method: Methods: This is a randomized, two-arm study of oral Rigosertib (560 mg bid) administered either intermittently (2 out of 3 weeks) or continuously. Transfusion-dependent patients received at least 4 units RBC transfusions over 8 weeks before randomization as well as transfusions and erythrocyte stimulating agents (ESAs) while on study.
The study design in low or independent transfusion-dependent MDS patients: 43 patients enrolled and randomized 1:1 in two groups. The first group was administered 560 mg capsules BID in days 1-14 of 21 day cycle. The second group was administered 560 mg capsules BID in days 1-21 of 21 day cycle. […] The protocol was amended for the […] on intermittent dosing.
In these cases 560 mg bid dosing was replaced with 560 mg am (30 min+ before breakfast) and 280 mg 2 hs+ after lunch and 30 min+ before dinner. Dysuria questionnaire (American Urological Association) was provided to all patients at baseline, 3 weeks and every 3 cycles thereafter and recommend for vigorous hydration and bicarbonate prn.
The ongoing phase II trial 09-05 is designed to evaluate oral Rigosertib as a single agent in transfusion-dependent lower risk MDS patients. This trial is a randomized, two-arm study of oral Rigosertib (560 mg bid) administered either intermittently (2 out of 3 weeks) or continuously. Transfusion-dependent patients must have received at least 4 units of RBC transfusions over 8 weeks before randomization and can receive transfusions and erythrocyte stimulating agents (ESAs) while on study.

[4] = iv, 800 mg, 800 mg IV (24 hr infusion)
[5] = po, 560 mg, 560 mg Oral (Fasting)
[6] = 39 RAEB-1, 2, t-pts refractory or relapsing after azacitidine/decitabine
[7] = higher risk MDS patients who had previously failed Vidaza or Dacogen
[8] = 34 patients dosed intermittently
[9] = individual transfusion responders

## COc1cc(OC)c(/C=C/S(=O)(=O)Cc2ccc(OC)c(NCC(=O)[O-])c2)c(OC)c1.[Na+] [Rigosertib, sodium (E)-2-{2-methoxy-5-[(2′,4′,6′-trimethoxystyrylsulfonyl)methyl]phenylamino}acetate]
[1]; 560 mg oral, fed vs fasting
  decrease of AUC after a meal as compared to fasting conditions: 61%
  decrease of Cmax after a meal as compared to fasting conditions: 77%
[1]; [4]
  AUC: 52700 ± 19200 ng·h/mL
  Cmax: 3140 ± 1130 ng/mL
  Tmax: 2.91 ± 1.3 h
  half-life: 3.25 ± 0.97 h
[1]; [5]
  AUC: 6890 ± 3980 ng·h/mL
  Cmax: 2420 ± 1260 ng/mL
  Tmax: 1 ± 0.45 h
  bioavailability: 34.9 ± 17.6%
  half-life: 2.79 ± 1.23 h
[1]; po, 560 mg, 560 mg Oral (Fed)
  AUC: 2710 ± 1510 ng·h/mL
  Cmax: 560 ± 310 ng/mL
  Tmax: 2.82 ± 1.15 h
  bioavailability: 13.8 ± 6.04%
  half-life: 2.61 ± 0.93 h
[2]; 15 patients refractory/relapsing after hypomethylating agents, 3-day infusions 1800 mg/day every other week
  patients still alive at 49 weeks: 47%
[2]; [6]
  N patients with Progressive Disease: 3
  N patients with Stable BM Response: 14
  N patients with ≥50% Blast Decrease: 13
[2]; 39 pts refractory/relapsing after azacitidine/decitabine, BM response Not Assessed
  Median OS: 11 weeks
[2]; 39 pts refractory/relapsing after azacitidine/decitabine, Progressive Disease
  Median OS: 10 weeks
[2]; 39 pts refractory/relapsing after azacitidine/decitabine, Stable BM Response
  Median OS: 40 weeks
[2]; 39 pts refractory/relapsing after azacitidine/decitabine, ≥50% Blast Decrease
  Median OS: 44 weeks
[2]; 51 RAEB-1, 2, t-pts
  N patients with Progressive Disease: 4
  N patients with Stable BM Response: 21
  N patients with ≥50% Blast Decrease: 16
[2]; 51 RAEB-1, 2, t-pts, BM response Not Assessed
  Median OS: 11 weeks
[2]; 51 RAEB-1, 2, t-pts, Progressive Disease
  Median OS: 13.5 weeks
[2]; 51 RAEB-1, 2, t-pts, Stable BM Response
  Median OS: 36 weeks
[2]; 51 RAEB-1, 2, t-pts, ≥50% Blast Decrease
  Median OS: 48 weeks
[2]; 60 MDS patients, CIV
  patients with hematological improvements: Nine
[2]; CIV infusions, MDS patients
  tolerability of infusions: well tolerated without evidence of bone marrow myelotoxicity
[2]; Intermediate-1 risk MDS patients, previously failed azacitidine or decitabine
  median survival: about 77 weeks
[2]; Intermediate-2 risk MDS patients, previously failed azacitidine or decitabine
  median survival: about 37 weeks
[2]; MDS patients who had previously failed azacitidine or decitabine
  decrease in immature bone marrow cells: about 50%
[2]; MDS patients, intravenous infusion, in general
  decrease or stabilization in the number of immature bone marrow cells (blasts): ≥ 50%
[2]; RAEB-1, 17 of 60 MDS patients, CIV
  Median OS: 43 weeks
[2]; RAEB-2, 21 of 60 MDS patients, CIV
  Median OS: 37 weeks
[2]; RAEB-T, 13 of 60 MDS patients, CIV
  Median OS: 20 weeks
[2]; RCMD, 9 of 60 MDS patients, CIV
  Median OS: 98 weeks
[2]; [7]
  decrease or stabilization in the number of immature bone marrow cells: ≥ 50%
  median survival: about 36 weeks
[3]; 560 mg bid
  overall tolerability of oral Rigosertib: well tolerated
[3]; 14/39 patients, intermittent dosing
  patients achieving TI, intent-to-treat analysis: 36%
[3]; 15 patients treated with intermittent dosing for at least 8 weeks
  patients achieving transfusion independence: 47%
[3]; 15 responders, intermittent dosing (conclusion)
  median duration of transfusion independence: 17 weeks
[3]; 17/48 patients (conclusion)
  patients achieving TI, intent-to-treat analysis: 35%
[3]; 26 evaluable patients (8 wks+ treatment), intermittent 560 mg bid, FIG. 9
  patients with transfusion independence: 50% and 46%
[3]; [8]
  Abdominal Pain/discomfort, GRADE 2 incidents: 1
  Abdominal Pain/discomfort, GRADE 3 incidents: 0
  Abdominal Pain/discomfort, TOTAL %: 3%
  Diarrhea, GRADE 2 incidents: 1
  Diarrhea, GRADE 3 incidents: 0
  Diarrhea, TOTAL %: 3%
  Fatigue, GRADE 2 incidents: 5
  Fatigue, GRADE 3 incidents: 0
  Fatigue, TOTAL %: 15%
  Hematuria or Cytitis, GRADE 2 incidents: 1
  Hematuria or Cytitis, GRADE 3 incidents: 5
  Hematuria or Cytitis, TOTAL %: 18%
  Insomnia, GRADE 2 incidents: 1
  Insomnia, GRADE 3 incidents: 0
  Insomnia, TOTAL %: 3%
  Nausea, GRADE 2 incidents: 3
  Nausea, GRADE 3 incidents: 0
  Nausea, TOTAL %: 9%
  Neutropenia, GRADE 2 incidents: 2
  Neutropenia, GRADE 3 incidents: 2
  Neutropenia, TOTAL %: 6%
  Urinary urgency, GRADE 2 incidents: 12
  Urinary urgency, GRADE 3 incidents: 0
  Urinary urgency, SAE: 1
  Urinary urgency, TOTAL %: 35%
[3]; 36 patients on intermittent dosing treated for at least 8 consecutive weeks
  patients achieving transfusion independence: 39%
[3]; Continuous regimen
  Responders (overall transfusion response): 2
[3]; Intermittent regimen
  Responders (overall transfusion response): 13
[3]; Total
  Responders (overall transfusion response): 15
[3]; continuous dosing arm
  patients with grade 2+ urinary side effects: 5 of 9
[3]; continuous dosing, 9 patients
  median duration of treatment: 24 weeks
[3]; continuous dosing, nine patients (8 treated for at least 8 weeks)
  patients achieving transfusion independence: two
[3]; four evaluable RAEB patients
  patients progressed: one
[3]; four evaluable RAEB patients, one unconfirmed
  patients achieving bone marrow complete response according to IWG 2006 criteria: three
[3]; individual RAEB-1/RAEB-2 patients
  Response (bone marrow, IWG 2006 criteria): BMCR (2×) and BMCRu
[3]; [9]
  Response week Duration (transfusion independence): ≥ 48 weeks and ≥ 37 weeks and 17 weeks and 37+ weeks and 9 weeks and 28 weeks and 30 weeks and 8 weeks and 17+ weeks and 12 weeks and 14+ weeks and 48+ weeks
  Response week Onset (transfusion response): 1 weeks (8×) and 24 weeks and 14 weeks and 4 weeks and 19 weeks and 13 weeks
[3]; intermittent dosing with option of dose interruption/reduction
  patients with urinary grade 2+ toxicity: 4/20
[3]; intermittent dosing, 34 patients
  median duration of treatment: not reached
[3]; intermittent dosing, at least 8 consecutive weeks, 15 patients (conclusion)
  patients achieving transfusion independence: 45%
[3]; lower-risk transfusion dependent MDS, concomitant ESA
  interaction between Rigosertib and ESA: synergy
[3]; twelve patients, 560 mg AM and 280 mg PM, median 6 weeks
  patients developing grade 2 urinary toxicity: one
[3]; week 15 follow-up, individual RAEB-1/RAEB-2 patients
  Bone marrow blast values: 4% and 10% and 77% and 3%
[3]; week 30 follow-up, individual RAEB-1/RAEB-2 patients
  Bone marrow blast values: 4% and 9%
[3]; week 45 follow-up, individual RAEB-1/RAEB-2 patients
  Bone marrow blast values: 5%
[3]; week 60 follow-up, individual RAEB-1/RAEB-2 patients
  Bone marrow blast values: 5%
